The results in this text go back to PubChem BioAssay (NCI).

Assay in all cases: NCI anticancer screen, dose series, 48 h
The subject of assay [1] is ACHN renal.
Assay [2] has as its system CAKI-1 renal.
Assay [3] deals with HCT-116 colon.
Assay [4] relates to OVCAR-8 ovarian.
Assay [5] relates to PC-3 prostate.
Assay [6] concerns SF-268 CNS.
Assay [7] relates to SF-295 CNS.
Assay [8] deals with SN12C renal.
The test system of assay [9] is SNB-19 CNS.
In assay [10] the test system is U251 CNS.

Several values for one entry are separate records, joined by “and”; a condition that tells them apart may be missing. Identical values can stand only once.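 Dose response: 5 concentrations. Exposure: 48 h. Format: 96-well plates. Endpoint: linear interpolation; highest concentration if not reached. Here, GI50 denotes the concentration required for 50% inhibition of growth. TGI: concentration producing complete growth inhibition.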 Some results are limits rather than exact numbers.

With `Cc1ccc(/C=C/C(=N/N=C(N)N)c2ccccc2)cc1`, the GI50 was 4.17 µM in [1]; 8.97 µM in [2]; 3.05 µM in assay [3]; 2.98 µM in assay [4]; 3.32 µM in [5]; 4.13 µM in assay [6]. Moreover, the GI50 in [7] was 2.99 µM; in [8], 4.5 µM; in assay [9], 4.21 µM; in assay [10], 3.1 µM. The TGI in assay [1] was found to be 17.4 µM; in assay [2] it was 25.1 µM; in assay [3] it was 12.2 µM; in assay [4], 10.9 µM; in [5] it was 16.9 µM; in assay [6], 16.3 µM. In addition, the TGI in assay [7] was 13.1 µM; in assay [8], 16.9 µM; in assay [9] it was 17.3 µM; in [10], 12.5 µM.

Turning to `CCOC(=O)c1ccc2c(c1)nc(/C=C/c1ccc(Cl)cc1)n2-c1cc(C(C)(C)C)[nH]n1`, the GI50 in [1] was 2.03 µM; in [2], 5.04 µM; in assay [3] it was 3.42 µM; in assay [4], 5.31 µM; in assay [5] it was 5.85 µM; in assay [6], 5.86 µM. In addition, the GI50 in assay [7] is 2.63 µM; in assay [8], 7.3 µM; in assay [9], 5.93 µM; in assay [10], 3.28 µM. The TGI in assay [1] is 5.75 µM; in [2], 61.2 µM; in assay [3] it was 12.4 µM; in assay [4] it was 33.9 µM; in [5], 47 µM; in [6], greater than 100 µM. Moreover, the TGI was 8.82 µM in [7], 81 µM in [8], greater than 100 µM in assay [9] and 13.2 µM in assay [10].

For the compound `O=C(c1ccco1)c1c(C(F)(F)F)nc2ccc(C(F)(F)F)cc2[n+]1[O-]`, the GI50 is 23.4 µM in assay [1]; 24.5 µM in assay [2]; 29.3 µM in assay [3]; 35.3 µM in [4]; 41.9 µM in assay [5]; 33.3 µM in [6]. Further, the GI50 is 33.2 µM in [7], 43.4 µM in [8], 27.5 µM in assay [9] and 25.9 µM in assay [10]. Moreover, the TGI in assay [1] was 60 µM; in assay [2], greater than 83.2 µM; in assay [3] it was greater than 100 µM; in assay [4] it was greater than 100 µM; in [5], greater than 100 µM; in assay [6], 99.5 µM. For the same compound, the TGI in [7] is greater than 100 µM; in assay [8] it was greater than 100 µM; in [9], greater than 79.7 µM; in assay [10] it was 61.5 µM.

For `COC(=O)c1ccc2c(c1)C(=O)c1c-2n(C)c(=O)c2cc(OC)c(OC)cc12`, the GI50 was greater than 50 µM in assay [1]; greater than 50 µM in [2]; 40.1 µM in assay [3]; greater than 50 µM in assay [4]; greater than 50 µM in assay [5]; greater than 50 µM in assay [6]. Further, the GI50 was 34 µM in [7], greater than 50 µM in assay [8], greater than 50 µM in assay [9] and 19.8 µM in assay [10]. Also, the TGI in [1], in assay [2], in assay [3], in assay [4], in assay [5] and in assay [6] was greater than 50 µM throughout. Moreover, the TGI in assay [7], in [8], in [9] and in assay [10] was greater than 50 µM each time.

Take `NS(=O)(=O)c1ccc(NCc2cnc3ccccc3n2)cc1`: the TGI in assay [1], in assay [2], in assay [3], in assay [4], in assay [5] and in [6] was greater than 100 µM throughout. Moreover, the TGI in assay [7], in [8], in assay [9] and in assay [10] was greater than 100 µM throughout.

Turning to `C=C1COC(O)(C2OCOC(C3CC(=O)NC(=O)C3)C2O)C1C` (configuration not stated), the GI50 was 0.00352 µM in [1]; 0.00394 µM and 0.019 µM in [2]; 0.00288 µM in assay [3]; 0.00425 µM and 0.0104 µM in assay [4]; 0.00629 µM in [5]; 0.00577 µM in assay [6]. Besides, the GI50 was 0.00249 µM in assay [7], 0.0036 µM in assay [9] and 0.00275 µM in assay [10]. For the same compound, the TGI in assay [1] is 0.198 µM and 0.0355 µM; in assay [3], 0.0337 µM and 0.0335 µM; in assay [4], 0.0413 µM and 0.0509 µM; in assay [5], 0.0501 µM; in assay [6], 0.0423 µM and 0.033 µM; in assay [7], 0.018 µM and 0.0423 µM. In addition, the TGI was 0.012 µM in assay [8]; 0.0376 µM and 0.0739 µM in assay [10].

`O=C1C(Nc2ccc(Br)cc2)=C(I)C(=O)c2ncccc21`: the GI50 in assay [1] was 0.738 µM; in [2], 0.677 µM; in assay [3], 0.336 µM; in assay [4], 0.809 µM; in [5], 0.888 µM; in [6], 1.13 µM. The GI50 was 7.56 µM in assay [7], 0.828 µM in assay [8], 1.41 µM in assay [9] and 1.32 µM in assay [10]. For the same compound, the TGI in assay [1] amounted to 1.56 µM; in assay [2] it was 1.34 µM; in assay [3] it was 1.08 µM; in [4], 1.69 µM; in assay [5] it was 6.44 µM; in assay [6], 4.94 µM. The TGI was determined as 14.9 µM in [7], 1.74 µM in assay [8], 5.16 µM in assay [9] and 3.98 µM in assay [10].

In the case of `CCC(CCC(C)C1CCC2C3CC=C4CC(OC5OC(CO)C(O)C(O)C5O)CCC4(C)C3CCC12C)C(C)C` (configuration not stated), the TGI in assay [1], in assay [2], in [3], in assay [4], in assay [5] and in [6] was greater than 100 µM in each case. The TGI in [7], in assay [8], in assay [9] and in [10] was greater than 100 µM each time.

On to `C[C@]12CC[C@H]3[C@@H](CCC4=CC(=O)CC[C@@]43C)[C@@H]1CC[C@@H]2C(=O)COS(=O)(=O)c1ccc(Br)cc1`, for which the TGI in assay [1] was found to be 27.6 µM; in [2] it was 19.7 µM; in [3], 22.7 µM; in [4], 14.3 µM; in assay [5] it was 23 µM; in assay [6], 34.6 µM. The TGI was 47.3 µM in assay [7], 34.3 µM in [8], 44.6 µM in assay [9] and 26.2 µM in assay [10].
